The values that follow come from BindingDB's records for doi:10.1021/acs.jnatprod.5b00104 (Peking Union Medical College, 2015).

This assay addresses T1, X-box-binding protein 1 (Rattus norvegicus, UniProt Q9R1S4).
T1 sequence (Q9R1S4 whole entry): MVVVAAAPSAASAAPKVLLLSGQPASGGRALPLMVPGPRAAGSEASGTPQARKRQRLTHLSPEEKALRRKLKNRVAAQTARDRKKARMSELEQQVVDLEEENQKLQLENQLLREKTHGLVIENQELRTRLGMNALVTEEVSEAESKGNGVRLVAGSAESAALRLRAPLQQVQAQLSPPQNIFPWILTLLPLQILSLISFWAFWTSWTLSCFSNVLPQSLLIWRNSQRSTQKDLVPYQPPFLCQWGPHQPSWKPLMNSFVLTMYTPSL
Briefly: ChEBML_1526682. The text has this: Transactivation of XBP1 in rat IEC-6 cells after 48 hrs by dual luciferase reporter gene assay

Structures are written as SMILES.

In the case of `C/C1=C/C[C@@H](O)[C@@]2(C)CC[C@@](C(C)C)(C[C@@H](O)[C@]3(C)CC[C@H]1O3)O2`, the EC50 was 340 nM. This lies in the sub-micromolar range.

`CC(C)[C@@]12CC[C@@](C)(O1)[C@H](O)CC/C(C=O)=C/CC[C@@]1(C)O[C@@H]1C2` returned an EC50 of 1140 nM. This EC50 is about 3.4-fold higher than that of the molecule before.

Regarding `C/C1=C\[C@@H](O)C[C@@]2(C)O[C@@H]2C[C@]2(C(C)C)CC[C@@](C)(O2)[C@H](O)CC1=O`, the EC50 amounted to 880 nM.

`C/C1=C\CC[C@@]2(C)O[C@@H]2C[C@]2(C(C)C)CC[C@@](C)(O2)[C@H](O)CC1=O` registered an EC50 of 420 nM. Compared with the last molecule, the EC50 is about 2.1-fold lower.

What is called EC50 is the concentration needed to bring the measured effect to its halfway point. Low readings indicate a more potent agent, high ones a less potent agent.
